Consider one compound from patent US6960594B2, “Thiophene and furan 2,5-dicarboxamides useful in the treatment of cancer” (Shire BioChem Inc., priority 1998, dated 2005).

For one experiment, the system named is HMVEC. Nature of the experiment: Cell proliferation and cytotoxicity MTT assay, HMVEC. The experiment is classed as cell-based. The settings on record: HMVEC, 72 hours culture. Here is the method:
The wells of microtiter plates were seeded with 2000 cells/well T24, 2500 cells/well HT29 or 5000 cells/well HMVEC (Cell Systems) in 100 uL, followed by an overnight culture for cell adhesion. The next day, the media is supplemented with 100 uL of 10-fold dilution of compound of interest starting at 10 uM. Following culture for 72 hours, 3-(4,5-dimethyl-2-thiazolyl)-2,5-diphenyltetrazolium bromide (MTT; Sigma) at 2 mg/mL was added to each well (50 uL/well) and further incubated for 4 hours at 37° C. The medium was flicked out and 200 uL of a 1:1 solution of ethanol:acetone followed by 25 uL of glycine buffer (0.1 M glycine, 0.1M NaCl, pH 10.5) is added and the color measured by the absorbance at 570 nm.
In general terms: Formazan colour is commonly taken as a measure of viable cells.

In experiment [1] the test system is Chick chorioallantoic membrane (CAM) capillary formation driven by VPF/VEGF165. Nature of the experiment: Chick chorioallantoic membrane (CAM) mesh assay. Conditions: significant if >25%. The experiment is classed as in vivo, chicken. Here is the method: Fertilized white leghorn chicken eggs (SPAFAS Inc., Norwich, Conn.) were received at day 0 and incubated for 3 days at 37 C with constant humidity. On day 3, eggs were rinsed with 70% ethanol and opened into 100 mm^2 tissue culture coated Petri dishes under aseptic conditions. The embryos were then returned to a humidified 38 C incubator for 7-9 additional days.
Vitrogen (Collagen Biomaterials, Palo Alto, Calif.) at a final concentration of 0.73 mg/mL and Matrigel (Becton Dickinson, Bedford, Mass.) at a final concentration of 10 mg/mL was directly pipetted onto Nylon meshes with 250 μm^2 openings which were cut into 4 mm×4 mm squares and autoclaved. Polymerization of meshes were under aseptic conditions, on bacteriological Petri dishes. The polymerization conditions for each substrate were identical; after mixing with or without 250 μg of VPF/VEGF165 (Peprotech, Rocky Hill, N.J.) and/or compounds of interest, 40 μL were pipetted onto each mesh in a bacteriological Petri dish. The Petri dish was placed in a humidified 37 C incubator with 5% CO2 for 30 minutes to allow polymerization followed by an incubation at 4° C. for 2 hours.
In a tissue culture enclosure, meshes were placed onto the periphery of the CAM of a day 12-14 embryo, excluding areas containing major vessels. The embryos were then returned to the humidified 38° C. incubator with 3% CO2 for 24 to 48 additional hours.
Embryos were removed from the incubator and meshes were viewed under a dissecting microscope for gross evaluation. Injection of 400 μL FITC dextran, MW 2,000,000 (Sigma, St. Louis, Mo.) through glass microcapillary tubes by infusion into the umbilical vein was performed at a rate of 200 μl per minute. The FITC dextran was allowed to circulate for 5 minutes and 3.7% formaldehyde in PBS was applied directly on each mesh. The embryos were then incubated at 40° C. for 5 minutes and the meshes were dissected off the CAM and fixed in 3.7% formaldehyde for 10 minutes to overnight.
After fixation, meshes were mounted on slides with 90% glycerol in PBS and visualized on an inverted fluorescence microscope. A Nikon Diaphot with a Sony DXC-151A camera attached to the side port was used for capture of images and analysis was with the NIH Image 1.61 software program. For each mesh, 5 random staggered images (approximately 600 μm each) were captured. The areas of high intensity were highlighted and measured. Results are expressed as ability to suppress capillary formation after subtraction from negative control. Values were calculated as a inhibition, considering 100% the capillary density achieved by VPF in the presence of vitrogen alone minus the bakground levels in the absence of VPF. Negative values indicated angiogenic stimulation above the VPF positive control.

A further experiment concerns the target T1, αvβ5 (Homo sapiens, UniProt P06756+P18084).
T1 construct: Cells HT29, K562, or K562 transfected with αvβ3; endogenous in cells; host or cells: HT29
Nature of the experiment: Cell adhesion assay, HT29 on vitronectin. It counts as cell-based. On the procedure:
(§1) The wells of 96-well plates (Immunolon) were coated, by incubation overnight at 4° C., with 5 ug/mL vitronectin, 2 ug/mL osteopontin, or fibronectin or 10 mg/mL BSA in PBS. The protein solution was flicked out and the wells were blocked with 10 mg/mL BSA (0.1 mL) for 1-2 hours at 37° C. […] Cells were lifted with trypsin-EDTA and washed two times with Hank's balanced salt solution minus cations (Sigma) supplemented with 1 mM MgCl2 Cells (75,000 cells/well) were added to coated plates in triplicate and allowed to attach at 37° C. for 1 hour in the presence or absence of specific antibodies (5 ug/mL) or 10-fold dilutions of compounds of interest starting at 10 uM. Nonadherent cells were removed by gentle washing twice with PBS. The adherent cells were solubilized with 1% triton x-100 and detected using a fluorescence plate reader (DYNEX Technologies). The number of attached cells was calculated based upon standard curves for each cell line used in the experiment.

The target in a further experiment is T2, placental αvβ3 (Homo sapiens, UniProt P05106+P06756).
T2 construct: placental αvβ3 at 0.5 ug/mL; from tissue; host or cells: placenta
The experiment is described as follows: Fibrinogen binding to immobilized αvβ3. Here is the method: The wells of plastic microtiter plates were coated overnight at 4° C. with purified active αIIbβ3 (Calbiochem) or placental αvβ3 at 0.5 ug/mL (100 uL/well) in a buffer containing 150 mM NaCl, 20 mM Tris, pH 7.4, 1 mM MgCl2, 0.2 mM MnCl2, and including 1 mM CaCl2 for αIIbβ3. Blocking of nonspecific sites was achieved by incubating the wells with 35 mg/mL bovine serum albumin (BSA) for at least 2 hours at 37° C. Biotinylated-fibrinogen (10 nM) was added in 0.2 mL binding buffer (100 mM NaCl, 50 mM Tris, pH 7.4, 1 mM MgCl2, 0.2 mM MnCl2 and 1 mg/mL BSA including 1 mM CaCl2 for αIIbβ3) to the wells in triplicate in the absence or presence of increasing concentrations of compounds of interest (0.001-100 uM) and further incubated for 2 hours at 37° C. Nonbound fibrinogen was removed by five washes with binding buffer. Avidin conjugated to alkaline phosphatase (Sigma), diluted in binding buffer, was added and incubated for two hours at 37° C. The plates were washed five times with binding buffer, and after addition of the substrate PNPP (Pierce), the enzyme activity was measured by the absorbance at 405 nm.

The next experiment deals with T3, αvβ3 (Homo sapiens, UniProt P05106+P06756).
T3 construct: expressed in transfected cells; host or cells: K562
The experiment is described as follows: Cell adhesion assay, K562-tr on osteopontin. It counts as cell-based. Here is the method:
as §1

T2 sequence (P06756 31-889 limits assumed): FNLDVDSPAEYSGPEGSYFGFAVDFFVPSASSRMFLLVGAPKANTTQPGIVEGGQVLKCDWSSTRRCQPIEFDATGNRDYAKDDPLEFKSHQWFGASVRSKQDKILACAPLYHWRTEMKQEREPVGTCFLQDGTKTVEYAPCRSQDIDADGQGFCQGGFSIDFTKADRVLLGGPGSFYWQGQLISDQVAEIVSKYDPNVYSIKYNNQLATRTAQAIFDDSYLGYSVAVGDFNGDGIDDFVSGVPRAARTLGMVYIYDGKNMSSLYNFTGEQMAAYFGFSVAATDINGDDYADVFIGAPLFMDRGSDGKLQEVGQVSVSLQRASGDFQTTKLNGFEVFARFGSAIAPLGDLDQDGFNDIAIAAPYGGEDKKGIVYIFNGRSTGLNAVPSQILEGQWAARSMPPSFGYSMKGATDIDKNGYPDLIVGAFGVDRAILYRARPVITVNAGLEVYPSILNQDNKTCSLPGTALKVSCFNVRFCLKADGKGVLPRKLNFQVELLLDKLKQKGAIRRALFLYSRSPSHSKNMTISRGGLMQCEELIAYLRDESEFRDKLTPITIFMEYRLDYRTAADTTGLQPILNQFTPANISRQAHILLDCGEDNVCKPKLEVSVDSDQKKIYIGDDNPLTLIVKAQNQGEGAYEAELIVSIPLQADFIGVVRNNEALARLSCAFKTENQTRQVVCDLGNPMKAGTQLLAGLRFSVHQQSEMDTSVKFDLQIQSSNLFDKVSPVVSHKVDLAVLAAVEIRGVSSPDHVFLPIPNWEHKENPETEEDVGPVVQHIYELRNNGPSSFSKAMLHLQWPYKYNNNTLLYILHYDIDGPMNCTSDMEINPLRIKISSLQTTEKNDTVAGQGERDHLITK
T2 sequence (P06756 891-1048 partner limits assumed): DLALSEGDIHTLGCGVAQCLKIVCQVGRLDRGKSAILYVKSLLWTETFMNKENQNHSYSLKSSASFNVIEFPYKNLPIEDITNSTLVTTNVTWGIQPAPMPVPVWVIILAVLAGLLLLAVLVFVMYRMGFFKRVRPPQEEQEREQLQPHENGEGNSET
T2 sequence (P05106 27-788): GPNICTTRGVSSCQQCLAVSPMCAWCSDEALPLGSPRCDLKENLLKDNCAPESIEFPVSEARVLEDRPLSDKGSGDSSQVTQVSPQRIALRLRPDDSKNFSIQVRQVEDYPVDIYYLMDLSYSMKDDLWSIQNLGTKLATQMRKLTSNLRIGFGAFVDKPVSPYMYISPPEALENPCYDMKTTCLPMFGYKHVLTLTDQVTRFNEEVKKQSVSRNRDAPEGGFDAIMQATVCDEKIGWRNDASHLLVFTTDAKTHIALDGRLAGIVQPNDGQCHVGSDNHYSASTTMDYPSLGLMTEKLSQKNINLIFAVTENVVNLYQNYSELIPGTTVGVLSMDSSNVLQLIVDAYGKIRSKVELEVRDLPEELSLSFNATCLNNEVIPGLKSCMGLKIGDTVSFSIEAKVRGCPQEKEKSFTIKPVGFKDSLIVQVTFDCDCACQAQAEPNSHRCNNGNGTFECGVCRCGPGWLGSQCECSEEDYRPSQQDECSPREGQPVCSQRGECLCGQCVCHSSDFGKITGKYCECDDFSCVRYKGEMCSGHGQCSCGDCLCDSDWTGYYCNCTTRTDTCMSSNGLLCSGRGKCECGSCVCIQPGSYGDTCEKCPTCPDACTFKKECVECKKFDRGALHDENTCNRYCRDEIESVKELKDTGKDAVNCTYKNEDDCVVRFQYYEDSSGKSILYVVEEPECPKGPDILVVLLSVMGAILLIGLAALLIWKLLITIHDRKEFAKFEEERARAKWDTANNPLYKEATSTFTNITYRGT
T3 sequence (P06756 31-889 limits assumed): as the sequence (P06756 31-889 limits assumed) above
T3 sequence (P06756 891-1048 partner limits assumed): as the sequence (P06756 891-1048 partner limits assumed) above
T3 sequence (P05106 27-788): as the sequence (P05106 27-788) above
T1 sequence (P06756 31-889 limits assumed): as the sequence (P06756 31-889 limits assumed) above
T1 sequence (P06756 891-1048 partner limits assumed): as the sequence (P06756 891-1048 partner limits assumed) above
T1 sequence (P18084 24-799): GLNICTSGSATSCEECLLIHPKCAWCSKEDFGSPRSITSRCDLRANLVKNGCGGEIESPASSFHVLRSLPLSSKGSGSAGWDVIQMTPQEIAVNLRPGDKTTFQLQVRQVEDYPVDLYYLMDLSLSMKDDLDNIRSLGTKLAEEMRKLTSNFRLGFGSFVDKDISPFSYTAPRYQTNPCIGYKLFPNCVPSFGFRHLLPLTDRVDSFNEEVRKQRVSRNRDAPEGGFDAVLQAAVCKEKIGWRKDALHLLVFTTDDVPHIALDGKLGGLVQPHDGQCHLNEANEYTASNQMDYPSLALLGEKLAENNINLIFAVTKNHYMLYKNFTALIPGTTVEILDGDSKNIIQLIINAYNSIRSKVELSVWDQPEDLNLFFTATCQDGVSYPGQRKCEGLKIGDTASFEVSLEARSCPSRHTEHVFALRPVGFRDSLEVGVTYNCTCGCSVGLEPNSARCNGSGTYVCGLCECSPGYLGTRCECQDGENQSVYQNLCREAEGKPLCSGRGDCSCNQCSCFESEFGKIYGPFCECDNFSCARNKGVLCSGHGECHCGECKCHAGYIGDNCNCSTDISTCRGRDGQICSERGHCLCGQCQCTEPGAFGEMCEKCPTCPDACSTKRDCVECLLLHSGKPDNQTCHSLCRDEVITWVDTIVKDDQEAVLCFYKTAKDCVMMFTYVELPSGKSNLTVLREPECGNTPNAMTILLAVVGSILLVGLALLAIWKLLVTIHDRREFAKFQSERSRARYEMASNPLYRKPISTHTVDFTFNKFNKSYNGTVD

One may read the IC50 as the midpoint of a concentration-inhibition curve. Low readings indicate greater potency, high ones weaker potency. Consider `NCCCNC(=O)c1ccc(C(=O)NC(CC(=O)O)c2ccccc2)s1.O=C(O)C(F)(F)F` (centres unmarked) [Compound VII, 3-{[5-(3-Amino-propylcarbamoyl)-thiophene-2-carbonyl]-amino}-3-phenyl-propionic acid trifluoroacetic acid salt], for which the half-maximal inhibitory concentration (IC50) is above 10 µM in the experiment with HMVEC, above 10 µM against αvβ5, 6.6 µM at placental αvβ3 and above 10 µM on αvβ3. Also, the “% of inhibition at 33 μg/mesh in the presence of VEGF” value in experiment [1] amounted to 34%.
